In ChEMBL document CHEMBL1149204, “A new lead compound for abscisic acid biosynthesis inhibitors targeting 9-cis-epoxycarotenoid dioxygenase” (Bioorg Med Chem Lett, 2004):

Experiments:
Spinacia oleracea [1] = assay: Effect of compound at 100 uM concentration on ABA accumulation in spinachleaf slices determined as fresh weight of leaves (Experiment 3); format: functional
Spinacia oleracea [2] = assay: Effect of compound at 100 uM concentration on ABA accumulation in spinachleaf slices determined as fresh weight of leaves (Experiment 2); format: functional
Spinacia oleracea [3] = assay: Effect of compound at 100 uM concentration on ABA accumulation in spinachleaf slices determined as fresh weight of leaves (Experiment 1); format: functional
[4] = Inhibitory activity was determined against 9-cis-epoxycarotenoid dioxygenase (NCED) expressed in Escherichia coli in presence of 9''-cis-neo-xanthin
Spinacia oleracea [5] = assay: Effect of compound at 0.4 M concentration on ABA accumulation in spinachleaf slices determined as fresh weight of leaves (Experiment 3); format: functional
Spinacia oleracea [6] = assay: Effect of compound at 0.4 M concentration on ABA accumulation in spinachleaf slices determined as fresh weight of leaves (Experiment 2); format: functional
Spinacia oleracea [7] = assay: Effect of compound at 0.4 M concentration on ABA accumulation in spinachleaf slices determined as fresh weight of leaves (Experiment 1); format: functional

Structure (SMILES): COc1ccc(NC/C=C/c2ccc(OC)c(OC)c2)cc1
- ABA content per fresh weight (Spinacia oleracea [1]): 137.1 ng/g
- ABA content per fresh weight (Spinacia oleracea [2]): 168.7 ng/g
- ABA content per fresh weight (Spinacia oleracea [3]): 26.1 ng/g
- IC50 [4]: 145 µM

Structure (SMILES): CC(Cc1ccc(O)c(O)c1)C(C)Cc1ccc(O)c(O)c1 (configuration not stated) [NORDIHYDROGUAIARETIC ACID]
- ABA content per fresh weight (Spinacia oleracea [1]): 128.5 ng/g
- ABA content per fresh weight (Spinacia oleracea [2]): 165.3 ng/g
- ABA content per fresh weight (Spinacia oleracea [3]): 20.5 ng/g
- IC50 [4]: 183 µM

Structure (SMILES): OC[C@@H](O)[C@@H](O)[C@H](O)[C@H](O)CO [MANNITOL]
- Fresh weight (Spinacia oleracea [5]): 134.9 ng/g
- Fresh weight (Spinacia oleracea [6]): 178.4 ng/g
- Fresh weight (Spinacia oleracea [7]): 22.7 ng/g

Structure (SMILES): COC(=O)CN(C/C=C/c1ccc(OC)c(OC)c1)Cc1ccc(F)cc1
- ABA content per fresh weight (Spinacia oleracea [1]): 65.6 ng/g
- ABA content per fresh weight (Spinacia oleracea [2]): 82.8 ng/g
- ABA content per fresh weight (Spinacia oleracea [3]): 14 ng/g
- IC50 [4]: 55 µM

Structure (SMILES): Oc1ccc(CCNCc2ccccc2O)cc1
- IC50 [4]: 160 µM

Structure (SMILES): COc1ccc(CCN(C)Cc2ccc(OC)c(OC)c2)cc1
- IC50 [4]: 87 µM
